The target of assay [1] is T1, FIX wt (Homo sapiens, UniProt P00740).
T1 construct: made in house; host or cells: Escherichia coli
Briefly: SAM5 binding of zymogenic FIX wt to immobilized FVIIIa-derived peptide. Particulars: no additive; peptide immobilized on carboxymethyl-dextran chip, FIX wt 10-250 nM in mobile phase, 40 μL/min, 4 min association, 4 min dissociation, one-to-one two-state model; 20 mM HEPES pH 7.5, 150 mM NaCl, 5 mM CaCl2. Here is the method: (§1) Factor IX protein variants were expressed in Escherichia coli, refolded, purified and activated as described elsewhere 8, 9, 10.
(§2) The factor VIII‐derived peptides Ser558‐Gln565 (SVDQRGNQ) and Lys713‐Arg740 (KHTGDsYsYEDSsYEDISAYLLSKNNAIEPR; sY: sulfotyrosine) were purchased from JPT Peptide Technologies. Quality was controlled by HPLC and mass spectrometry and confirmed to be of better than 90% homogeneity.
(§3) Prior to the chip calibration at 22 °C, the instrument was flushed with a flow rate of 40 μL·min^−1 for 5 to 10 min. Chip calibration was performed using the SAM5 program with gain of 180 and a phase difference of 0.363.
(§4) The SAM5 instrument with a dextran‐COOH‐coated gold chip (NanoTemper Technologies) was equilibrated using filtered and degassed PBS running buffer, and the chip was calibrated as described above. 1‐ethyl‐3‐(3‐dimethylaminopropyl) carbodiimide (EDC) and N‐hydroxysuccinimide (NHS) were dissolved in ddH2O to a final concentration of 400 mM and 100 mM, respectively. To activate the chip, EDC and NHS were mixed at equal volume, resulting in the final concentrations of 200 mM EDC and 50 mM NHS. […]
(§5) Firstly, pumps were washed using filtered and degassed running buffer (20 mM HEPES pH 7.5, 150 mM NaCl, 5 mM CaCl2). […] The sensogram SAM5 data were exported to Origin and TraceDrawer, allowing to analyse and quantify the protein binding affinities, as described in the SAM5 user manual. […]

For assay [2], the target named is T2, FIX‐R170L (Homo sapiens, UniProt P00740, R384L).
T2 construct: made in house; host or cells: Escherichia coli
T2 sequence (P00740 133-461 R384L limits assumed): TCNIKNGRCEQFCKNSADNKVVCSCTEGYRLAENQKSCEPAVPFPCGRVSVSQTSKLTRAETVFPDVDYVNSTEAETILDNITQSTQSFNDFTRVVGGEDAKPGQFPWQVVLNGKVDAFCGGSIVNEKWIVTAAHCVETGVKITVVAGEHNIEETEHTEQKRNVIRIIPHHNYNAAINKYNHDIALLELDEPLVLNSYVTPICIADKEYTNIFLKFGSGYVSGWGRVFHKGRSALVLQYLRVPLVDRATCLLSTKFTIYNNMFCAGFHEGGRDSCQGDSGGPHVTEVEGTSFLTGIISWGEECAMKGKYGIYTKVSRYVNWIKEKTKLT
Briefly: SAM5 binding of zymogenic FIX-R170L (Padua) to immobilized FVIIIa-derived peptide. The settings on record: no additive, FIX-R170L as analyte 10-250 nM, pH 7.5, 5 mM CaCl2. Here is the method: as §1, §2, §3, §4
(§6) Firstly, pumps were washed using filtered and degassed running buffer (20 mM HEPES pH 7.5, 150 mM NaCl, 5 mM CaCl2). […] The sensogram SAM5 data were exported to Origin and TraceDrawer, allowing to analyse and quantify the protein binding affinities, as described in the SAM5 user manual.

Assay [3] concerns the target T3, FIXa R170L (Homo sapiens, UniProt P00740, R384L).
T3 construct: made in house; host or cells: Escherichia coli
The experiment in a line: SAM5 binding of activated FIXa R170L (Padua) to immobilized FVIIIa-derived peptide. The settings on record: no additive, FIXa R170L as analyte 10-250 nM, pH 7.5, 5 mM CaCl2. Here is the method: as §1, §2, §3, §4, §6

In assay [4] the target is T4, FIXa wt (Homo sapiens, UniProt P00740).
T4 construct: made in house; host or cells: Escherichia coli
T4 sequence (P00740 227-461 limits assumed): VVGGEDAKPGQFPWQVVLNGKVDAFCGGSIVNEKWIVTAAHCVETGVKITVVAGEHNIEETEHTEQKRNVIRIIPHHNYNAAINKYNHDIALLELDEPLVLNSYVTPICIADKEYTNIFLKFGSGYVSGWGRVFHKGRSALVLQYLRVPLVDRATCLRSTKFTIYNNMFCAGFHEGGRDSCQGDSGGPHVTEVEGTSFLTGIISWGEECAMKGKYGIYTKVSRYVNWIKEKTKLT
T4 sequence (P00740 47-191 partner limits assumed): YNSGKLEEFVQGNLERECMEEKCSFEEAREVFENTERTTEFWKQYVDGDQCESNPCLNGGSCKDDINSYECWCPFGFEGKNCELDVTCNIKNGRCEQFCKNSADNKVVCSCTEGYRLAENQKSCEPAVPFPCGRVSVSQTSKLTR
Briefly: SAM5 binding of activated FIXa wt to immobilized FVIIIa-derived peptide. Particulars: no additive, FIXa wt as analyte 10-250 nM, pH 7.5, 5 mM CaCl2. As to the method: as §1, §2, §3, §4, §6

Assay [5] has as its system activation peptide of factor IX and factor X. The settings on record: cited from earlier work; for affinity towards activation peptide binding site relative to active site: factor IX and factor X. An excerpt:
In the protease factors IX and X, proteolytic activation at Arg180 (FX: Arg194) and Arg145 releases an activation peptide, triggering a conformational disorder‐to‐order transition in the serine protease domain (Figs 2 and S1). The activation peptide is positioned between the light chain (consisting of the N‐terminal Gla, EGF1 and EGF2 domains) and the trypsin‐like serine protease domain. Light and heavy chains remain covalently linked via a disulfide bond. In both factor IX and factor X, the activation peptide harbours an intriguing high‐affinity binding site for benzamidine/arginine, exceedin ...

The target in assay [6] is activated factor VIIIa (FVIIIa). The experiment in a line: Surface acoustic wave (SAM5) binding of FIX(a) variants to immobilized activated factor VIIIa. The settings on record: for Kd: FVIIIa immobilized on dextran chip, SAM5 Blue surface acoustic wave, analyte 10-250 nM, 40 μL/min, 20 mM HEPES pH 7.5, 150 mM NaCl, 5 mM CaCl2, read-out: Kd, interaction with activated factor VIIIa. As to the method: pro‐FVIII was generously provided by Baxter Biosciences (Vienna, Austria). Human thrombin was purchased from Sigma. For activation, 100 μg FVIII lyophilisate was dissolved in ddH2O and spin‐dialysed by repeated concentration in 30 kDa cut‐off Amicon concentrators to a final concentration of ~ 0.2 mg·mL^−1. FVIII was activated by thrombin similar to protocols described elsewhere 11, 12. Briefly, thrombin was dissolved in 20 mM Hepes, pH 7.5, 100 mM NaCl and 5 mM CaCl2. 1 unit of thrombin was added to 1000 units of FVIII (100 μg) and incubated for 15 min at 37 °C without shaking. The protein mixture was then dialysed by in total four centrifugation steps against a 4 °C cold wash buffer consisting of 50 mM Hepes, pH 7.4, 300 mM NaCl and 2.5 mM CaCl2. The reaction was stopped after the second concentration step by adding 20 μL 50 mM PMSF to inhibit thrombin. The activation of FVIIIa was controlled by SDS/PAGE to observe the A1, A2 and A3‐C1‐C2 at ~55 kDa, 40 kDa and 70 kDa, respectively.
as §3
(§7) The SAM5 instrument with a dextran‐COOH‐coated gold chip (NanoTemper Technologies) was equilibrated using filtered and degassed PBS running buffer, and the chip was calibrated as described above. 1‐ethyl‐3‐(3‐dimethylaminopropyl) carbodiimide (EDC) and N‐hydroxysuccinimide (NHS) were dissolved in ddH2O to a final concentration of 400 mM and 100 mM, respectively. To activate the chip, EDC and NHS were mixed at equal volume, resulting in the final concentrations of 200 mM EDC and 50 mM NHS. The mixture was rapidly placed into position A1 of the tray holder. […]
as §5

Assay [7] concerns coagulation factor VIII (nonactivated FVIII). Briefly: Surface acoustic wave (SAM5) binding of FIX(a) variants to immobilized factor VIII. As to the method: as §3
as §7, with “holder. If carried out properly, the baseline will increase. Subsequently, the ligand (protein ligands at 250–500 nM concentration, peptidic ligands at 100 μM to 1 mM concentration) was placed into the tray holder at position A1. The binding of the ligand to the dextran matrix is based on electrostatic interactions.” for “holder.”
as §5

Where two headings read alike, the source gives them in different places. Square brackets hold non-standard residues; d marks the D form. Ends that are not written are not given here. Peptide text beside a SMILES is read from it. sY = N[C@@H](Cc1ccc(OS(=O)(=O)O)cc1)C(=O)O

This is an account of results in paper PMC6668378, “Maturation of coagulation factor IX during Xase formation as deduced using factor VIII‐derived peptides” (FEBS Open Bio, 2019).

T3 sequence (P00740 227-461 R384L): as the sequence (P00740 227-461 limits assumed) above, with R158L counted along it
T3 sequence (P00740 47-191 partner limits assumed): as the sequence (P00740 47-191 partner limits assumed) above
T1 sequence (P00740 29-461 limits assumed): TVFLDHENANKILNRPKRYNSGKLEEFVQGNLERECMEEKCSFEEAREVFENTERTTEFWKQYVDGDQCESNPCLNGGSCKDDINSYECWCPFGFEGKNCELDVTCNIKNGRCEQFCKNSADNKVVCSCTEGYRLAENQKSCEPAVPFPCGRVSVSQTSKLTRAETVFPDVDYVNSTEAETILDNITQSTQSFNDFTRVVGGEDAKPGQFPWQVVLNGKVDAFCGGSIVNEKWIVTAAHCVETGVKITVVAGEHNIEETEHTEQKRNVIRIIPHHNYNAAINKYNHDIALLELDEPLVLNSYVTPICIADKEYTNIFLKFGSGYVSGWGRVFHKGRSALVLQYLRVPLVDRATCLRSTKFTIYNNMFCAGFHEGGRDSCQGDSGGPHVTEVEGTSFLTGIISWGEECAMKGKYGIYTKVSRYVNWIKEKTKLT

By Kd is commonly meant the concentration at which binding is half-saturated. As to `CC[C@H](C)[C@H](NC(=O)[C@H](C)NC(=O)[C@H](CC(N)=O)NC(=O)[C@H](CC(N)=O)NC(=O)[C@H](CCCCN)NC(=O)[C@H](CO)NC(=O)[C@H](CC(C)C)NC(=O)[C@H](CC(C)C)NC(=O)[C@H](Cc1ccc(O)cc1)NC(=O)[C@H](C)NC(=O)[C@H](CO)NC(=O)[C@@H](NC(=O)[C@H](CC(=O)O)NC(=O)[C@H](CCC(=O)O)NC(=O)[C@H](Cc1ccc(OS(=O)(=O)O)cc1)NC(=O)[C@H](CO)NC(=O)[C@H](CC(=O)O)NC(=O)[C@H](CCC(=O)O)NC(=O)[C@H](Cc1ccc(OS(=O)(=O)O)cc1)NC(=O)[C@H](Cc1ccc(OS(=O)(=O)O)cc1)NC(=O)[C@H](CC(=O)O)NC(=O)CNC(=O)[C@@H](NC(=O)[C@H](Cc1c[nH]cn1)NC(=O)[C@@H](N)CCCCN)[C@@H](C)O)[C@@H](C)CC)C(=O)N[C@@H](CCC(=O)O)C(=O)N1CCC[C@H]1C(=O)N[C@@H](CCCNC(=N)N)C(=O)O` [a2 peptide, KHTGDsYsYEDSsYEDISAYLLSKNNAIEPR] (H-KHTGD[sY][sY]EDS[sY]EDISAYLLSKNNAIEPR-OH), the dissociation constant (Kd) came out at 0.0658 ± 0.0235 µM in assay [1], 0.0528 ± 0.00975 µM in assay [2], 0.103 ± 0.0166 µM in assay [3] and 0.0989 ± 0.0116 µM in assay [4].
Regarding `N=C(N)NCCC[C@H](N)C(=O)O` [arginine], the “affinity towards activation peptide binding site relative to active site” value in assay [5] is “exceeding the affinity towards the active site by an order of magnitude”.
Take `N=C(N)c1ccccc1` [benzamidine]: in assay [5], the “affinity towards activation peptide binding site relative to active site” value is listed as “exceeding the affinity towards the active site by an order of magnitude”.
As for “FIX wt: recombinant zymogenic factor IX wild-type, expressed in Escherichia coli and refolded”, the Kd in assay [6] (analyte incubated with 1 μM aprotinin (BPTI)) amounted to 0.0722 ± 0.0602 µM; in assay [6] (analyte incubated with 1 mM benzamidine), 0.0836 ± 0.14 µM; in assay [7] (analyte incubated with 1 μM aprotinin (BPTI), FVIII immobilized on dextran chip, SAM5 Blue surface acoustic wave, analyte 10-250 nM, 40 μL/min, 20 mM HEPES pH 7.5, 150 mM NaCl, 5 mM CaCl2, read-out: Kd, interaction with nonactivated factor VIII) it was 0.0658 ± 0.0212 µM. Also, in assay [6] (in the presence of both benzamidine and BPTI), the “higher affinity of zymogenic FIX wt than FIXa wt for activated factor VIIIa” value is on record as “confirmed also when activated factor VIIIa was used as a binding partner”. For the same molecule, in assay [7] (FIX wt versus FIXa wt), the “affinity to cofactor VIII relative to activated FIXa wt” value is “more than 10 fold”.
In the case of SVDQRGNQ [558‐loop, SVDQRGNQ], the Kd in assay [1] came to 0.172 ± 0.0376 µM; in assay [2], 0.173 ± 0.0571 µM; in assay [3], 0.374 ± 0.138 µM; in assay [4] it was 0.457 ± 0.121 µM.
As to “basic pancreatic trypsin inhibitor [BPTI]”, the “binding to activation peptide versus active site” value in assay [5] (factor IX/X, background statement, no reference given) is given as “do not bind to the activation peptide but to the active site exclusively”.
